The source of these data is US20150290193A1, “NOVEL APPROACHES FOR INDIVIDUALIZED THERAPY OF PANCREATIC DUCTAL ADENOCARCINOMA” (HI-STEM gGmbH, priority 2012, published 2015).

SMILES strings stand for the structures.

Assay [1] relates to PACO tumors (transplanted human PDAC tumors). Kind of assay: In vivo drug screen, subcutaneous PACO tumors in NSG mice, relative tumor volume. The conditions noted are these: tumors of all three subtypes; 125 mg/kg i.p. twice weekly.
Procedure: Three groups of mice that each carried transplanted human tumors of one either the sensitive or the resistant subtypes were treated with Dasatinib, either alone or in combination with the chemotherapeutic agent Gemcitabine.
PACO tumors were established by injecting 5×10^5 cells subcutaneously into a cohort 20 NOD.Cg-Prkdcscid Il2rgtm1Wjl (NSG) mice. After the tumors reached a size of approx. 200 mm^3, mice were randomized into two groups of each 10 mice—Control, Gemcitabine, Dasatinib or combination of both. Gemcitabine was dissolved in 0.8% buffered saline and administered twice weekly at 125 mg/kg i.p. Dasatinib was prepared in citrate/citric acid buffer (pH 3) and administered daily via oral gavage at 25 mg/kg. Tumor volume was determined twice weekly via caliper measurements and calculated according the formula (length×height×width)×(π/6). Relative tumor growth was calculated for each individual tumor in relation to the volume calculated as of the start of the experiment.
Tumor size is expressed as relative volume normalized to the day of start of treatment.
Another assay relates to stable PDAC cell lines. Kind of assay: Dose-escalation IC50 determination, cell viability by CellTiterBlue. Format: cell-based, human. As to conditions: 72 h; 3-fold serial dilutions in quadruplicates.

Procedure for stable PDAC cell lines: For calculation of the IC50, 3-fold serial dilutions of selected compounds were screened in quadruplicates, incubated for 72 h after which cell viability was assessed using CellTiterBlue as described. Raw data was normalized to positive and negative controls present on each individual plate IC50 values were calculated using GraphPad Prism (Graph Pad Software, La Jolla).
For calculation of the IC50 serial dilutions of selected compounds were screened in quadruplicates. In brief, 8,000 cells/well were seeded 24 h prior to addition of individual compounds in 96-well plates. After incubation for 72 h, cell viability was assessed using CellTiterBlue (Promega, Mannheim) as described. Raw data was normalized to positive and negative controls present on each individual plate. IC50 values were calculated using GraphPad Prism (Graph Pad Software, La Jolla).

For `Nc1ccn([C@@H]2O[C@H](CO)[C@@H](O)C2(F)F)c(=O)n1` [Gemcitabine], in assay [1], the “tumor growth, Gemcitabine alone” value was “growth-inhibitory effect on tumors of all three subtypes, however did not lead to a complete stop in tumor growth”.

Take `Cc1nc(Nc2ncc(C(=O)Nc3c(C)cccc3Cl)s2)cc(N2CCN(CCO)CC2)n1` [Dasatinib]: the “fold lower IC50 value of the classical subtype versus exocrine-like and quasi-mesenchymal PDAC cells” value in the assay on stable PDAC cell lines was > 10,000 fold.
